US5420335A, “Parenteral nutrients based on watersoluble glycerol bisacetoacetates” (priority 1993, dated 1995)
“And” between values parts separate entries of the source, which are not always exact repeats. Equal values may be shown once.

Key:
Type in all cases: in vivo, rat (male Sprague-Dawley)
[1] = Daily urinary nitrogen losses of intravenously infused rats
Experimental: (§1) Water was available ad libitum at all times.
(§2) The vein was then ligated dorsally to the catheter. […] Body weights were measured daily.
(§3) Infusate volume, oral food intake, body weight and urinary volume and total nitrogen were monitored daily for each rat. Infusate volume and food intake were determined by weighing the appropriate container at the start and end of each 24 hr. period. Measurements were recorded between 9 and 10 AM each day. At the end of the 7th day, rats were sacrificed, and blood and liver were harvested. Plasma was separated for measurement of free fatty acids, glucose, and ketone bodies. Liver was weighed and a sample was fixed in buffered formalin for gross histology.
The data were analyzed for significance by the one-way analysis of variance with repeated measures and comparing the effect of dietary treatment on each day. […] The null hypothesis was concluded invalid if p≤0.05. The analysis of variance was computed on a SAS statistical package. […]

[2] = Oral dietary nitrogen (food) intake of intravenously infused rats; settings: for Dietary Nitrogen Intake: Table 1, Example 2
Experimental: as §1, §2, §3
(§4) The data were analyzed for significance by the one-way analysis of variance with repeated measures and comparing the effect of dietary treatment on each day. […] The null hypothesis was concluded invalid if p≤0.05. The analysis of variance was computed on a SAS statistical package.
(§5) This compound has an estimated energy density of 4.86 kcal/gram based on thermodynamic data from similar compounds.

[3] = Nitrogen balance (difference between intake and urinary output); settings: for Nitrogen Balance, Difference Between Intake and Output: Table 3, Example 2
Experimental: as §1, §2, §3, §4
FIG. 3 illustrates the difference between oral intake and urinary nitrogen output which is termed nitrogen balance. It is representative of nitrogen balance because urinary nitrogen is the major route for body loss of nitrogen.
The experimental compound contains 8% nitrogen. With an infusion of 5.6 grams/day, infused nitrogen would provide approximately 450 mg more than that listed in the data tables. The final balance figures includes this number which is calculated based on the actual daily infusion rate for each rat.

[4] = Daily body weight of intravenously infused rats; settings: Table 4, Example 2
Experimental: as §1, §2, §3, §4, §5

OC[C@H]1OC(O)[C@H](O)[C@@H](O)[C@@H]1O (some centres unmarked) [Glucose, glucose, reference compound]
Urinary Nitrogen ([1]; Table 2, Example 2, day 1, average of 7 rats): 144 mg | Urinary Nitrogen ([1]; Table 2, Example 2, day 1, individual rat): 164.08 mg and 92.04 mg and 219.2 mg and 80.25 mg and 78.51 mg and 282.44 mg and 88.28 mg | Urinary Nitrogen ([1]; Table 2, Example 2, day 2, average of 7 rats): 146 mg | Urinary Nitrogen ([1]; Table 2, Example 2, day 2, individual rat): 131.95 mg and 74.58 mg and 311.7 mg and 147.44 mg and 42.51 mg and 224.09 mg and 88.37 mg | Urinary Nitrogen ([1]; Table 2, Example 2, day 3, average of 7 rats): 203 mg | Urinary Nitrogen ([1]; Table 2, Example 2, day 3, individual rat): 58.42 mg and 94.88 mg and 599.66 mg and 115.01 mg and 145.05 mg and 174.3 mg and 236.92 mg | Urinary Nitrogen ([1]; Table 2, Example 2, day 4, average of 7 rats): 129 mg | Urinary Nitrogen ([1]; Table 2, Example 2, day 4, individual rat): 109.72 mg and 80.52 mg and 274.22 mg and 93.31 mg and 78.6 mg and 145.43 mg and 124.12 mg | Urinary Nitrogen ([1]; Table 2, Example 2, day 5, average of 7 rats): 177 mg | Urinary Nitrogen ([1]; Table 2, Example 2, day 5, individual rat): 111.02 mg and 125.89 mg and 316.17 mg and 84.8 mg and 224.34 mg and 241.17 mg and 137.97 mg | Urinary Nitrogen ([1]; Table 2, Example 2, day 6, average of 7 rats): 178 mg | Urinary Nitrogen ([1]; Table 2, Example 2, day 6, individual rat): 114.67 mg and 65.54 mg and 227.23 mg and 135.24 mg and 118.95 mg and 333.85 mg and 252.42 mg | Urinary Nitrogen ([1]; Table 2, Example 2, day 7, average of 7 rats): 218 mg | Urinary Nitrogen ([1]; Table 2, Example 2, day 7, individual rat): 71.89 mg and 105.54 mg and 474.91 mg and 159.89 mg and 124.66 mg and 267 mg and 319.39 mg | Urinary Nitrogen ([1]; Table 8, Example 4, day 1, average of 9 rats): 128 mg | Urinary Nitrogen ([1]; Table 8, Example 4, day 1, individual rat): 252 mg and 114.8 mg and 82.1 mg and 75.4 mg and 22.4 mg and 158.4 mg and 133.9 mg and 148.3 mg and 164.3 mg | Urinary Nitrogen ([1]; Table 8, Example 4, day 2, average of 9 rats): 135 mg | Urinary Nitrogen ([1]; Table 8, Example 4, day 2, individual rat): 266.4 mg and 153.9 mg and 105 mg and 57 mg and 91.8 mg and 159.8 mg and 111 mg and 108.9 mg and 158 mg | Urinary Nitrogen ([1]; Table 8, Example 4, day 3, average of 9 rats): 106 mg | Urinary Nitrogen ([1]; Table 8, Example 4, day 3, individual rat): 151 mg and 89.1 mg and 107.2 mg and 68.4 mg and 118.3 mg and 131.9 mg and 135.4 mg and 59.8 mg and 91.8 mg | Urinary Nitrogen ([1]; Table 8, Example 4, day 4, average of 9 rats): 125 mg | Urinary Nitrogen ([1]; Table 8, Example 4, day 4, individual rat): 127.2 mg and 92.7 mg and 114.8 mg and 44.5 mg and 73.8 mg and 165.9 mg and 168.7 mg and 93.6 mg and 240.1 mg | Urinary Nitrogen ([1]; Table 8, Example 4, day 5, average of 9 rats): 131 mg | Urinary Nitrogen ([1]; Table 8, Example 4, day 5, individual rat): 127.8 mg and 97.7 mg and 93.7 mg and 45.9 mg and 84.8 mg and 236.3 mg and 166.4 mg and 123.4 mg and 203.2 mg | Urinary Nitrogen ([1]; Table 8, Example 4, day 6, average of 9 rats): 172 mg | Urinary Nitrogen ([1]; Table 8, Example 4, day 6, individual rat): 256.3 mg and 104.9 mg and 133.7 mg and 72.7 mg and 138.3 mg and 307.5 mg and 146.9 mg and 169.4 mg and 215.2 mg | Urinary Nitrogen ([1]; Table 8, Example 4, day 7, average of 9 rats): 162 mg | Urinary Nitrogen ([1]; Table 8, Example 4, day 7, individual rat): 118.3 mg and 106.6 mg and 175.8 mg and 22.6 mg and 145.6 mg and 384.8 mg and 126.8 mg and 162.4 mg and 212.8 mg | urinary nitrogen losses ([1]; in words, 7 days): Saline infused rats also lost more nitrogen in the urine than did glucose infused rats | Dietary Nitrogen Intake ([2]; day 1, individual rat): 111.86 MG N and 164.5 MG N and 486.92 MG N and 269.78 MG N | Dietary Nitrogen Intake ([2]; day 2, individual rat): 217.14 MG N and 85.54 MG N and 427.7 MG N and 144.76 MG N and 493.5 MG N and 526.4 MG N | Dietary Nitrogen Intake ([2]; day 3, individual rat): 151.34 MG N and 118.44 MG N and 559.3 MG N and 52.64 MG N and 250.04 MG N and 276.36 MG N and 631.68 MG N | Dietary Nitrogen Intake ([2]; day 4, individual rat): 131.6 MG N and 118.44 MG N and 572.46 MG N and 98.7 MG N and 394.8 MG N and 414.54 MG N and 526.4 MG N | Dietary Nitrogen Intake ([2]; day 5, individual rat): 236.88 MG N and 230.3 MG N and 407.96 MG N and 157.92 MG N and 223.72 MG N and 217.14 MG N and 559.3 MG N | Dietary Nitrogen Intake ([2]; day 6, average of 7 rats): 303 MG N | Dietary Nitrogen Intake ([2]; day 6, individual rat): 118.44 MG N and 105.28 MG N and 243.46 MG N and 342.16 MG N and 289.52 MG N and 375.06 MG N and 644.84 MG N | Dietary Nitrogen Intake ([2]; day 7, individual rat): 177.66 MG N and 157.92 MG N and 269.78 MG N and 526.4 MG N and 210.56 MG N and 473.76 MG N and 664.58 MG N | appetite depression ([2]; in words, Example 4): glucose induced better appetite depression than did the experimental compound | differences in dietary nitrogen intake among the three groups ([2]; in words, vs saline and other groups, 7 days): no differences in dietary nitrogen intake among the three groups | nitrogen balance ([3]; Example 2, 7 days): around +100 mg/day | nitrogen balance ([3]; Example 4, infused nitrogen considered (FIG. 8)): over 200 mg/day | Nitrogen Balance, Difference Between Intake and Output ([3]; day 1, average of 7 rats): 59 MG N | Nitrogen Balance, Difference Between Intake and Output ([3]; day 1, individual rat): -52.22 MG N and 72.46 MG N and -54.7 MG N and 31.61 MG N and 33.35 MG N and 204.48 MG N and 181.5 MG N | Nitrogen Balance, Difference Between Intake and Output ([3]; day 2, average of 7 rats): 156 MG N | Nitrogen Balance, Difference Between Intake and Output ([3]; day 2, individual rat): 85.19 MG N and 10.96 MG N and 116 MG N and 69.7 MG N and 102.25 MG N and 269.41 MG N and 438.03 MG N | Nitrogen Balance, Difference Between Intake and Output ([3]; day 3, average of 7 rats): 88 MG N | Nitrogen Balance, Difference Between Intake and Output ([3]; day 3, individual rat): 92.92 MG N and 23.56 MG N and -40.36 MG N and -62.37 MG N and 104.99 MG N and 102.06 MG N and 394.76 MG N | Nitrogen Balance, Difference Between Intake and Output ([3]; day 4, average of 7 rats): 193 MG N | Nitrogen Balance, Difference Between Intake and Output ([3]; day 4, individual rat): 21.88 MG N and 37.92 MG N and 298.24 MG N and 5.39 MG N and 316.2 MG N and 269.11 MG N and 402.28 MG N | Nitrogen Balance, Difference Between Intake and Output ([3]; day 5, average of 7 rats): 113 MG N | Nitrogen Balance, Difference Between Intake and Output ([3]; day 5, individual rat): 125.86 MG N and 104.41 MG N and 91.79 MG N and 73.12 MG N and -0.62 MG N and -24.03 MG N and 421.33 MG N | Nitrogen Balance, Difference Between Intake and Output ([3]; day 6, average of 7 rats): 124 MG N | Nitrogen Balance, Difference Between Intake and Output ([3]; day 6, individual rat): 3.77 MG N and 39.74 MG N and 16.23 MG N and 206.92 MG N and 170.57 MG N and 41.21 MG N and 392.42 MG N | Nitrogen Balance, Difference Between Intake and Output ([3]; day 7, average of 7 rats): 137 MG N | Nitrogen Balance, Difference Between Intake and Output ([3]; day 7, individual rat): 105.77 MG N and 52.38 MG N and -205.13 MG N and 366.51 MG N and 85.9 MG N and 206.76 MG N and 345.19 MG N | nitrogen balance ([3]; in words, 7 days): positive nitrogen balances | Daily Body Weight ([4]; day 0, average of 7 rats): 258 Grams | Daily Body Weight ([4]; day 0, individual rat): 244 Grams and 228 Grams and 290 Grams and 250 Grams and 247 Grams and 281 Grams and 269 Grams | Daily Body Weight ([4]; day 1, average of 7 rats): 262 Grams | Daily Body Weight ([4]; day 1, individual rat): 238 Grams and 217 Grams and 329 Grams and 236 Grams and 244 Grams and 286 Grams and 284 Grams | Daily Body Weight ([4]; day 2, average of 7 rats): 257 Grams | Daily Body Weight ([4]; day 2, individual rat): 234 Grams and 211 Grams and 298 Grams and 233 Grams and 248 Grams and 293 Grams and 281 Grams | Daily Body Weight ([4]; day 3, average of 7 rats): 263 Grams | Daily Body Weight ([4]; day 3, individual rat): 229 Grams and 209 Grams and 337 Grams and 231 Grams and 266 Grams and 282 Grams and 286 Grams | Daily Body Weight ([4]; day 4, average of 7 rats): 259 Grams | Daily Body Weight ([4]; day 4, individual rat): 232 Grams and 207 Grams and 315 Grams and 226 Grams and 246 Grams and 295 Grams and 291 Grams | Daily Body Weight ([4]; day 5, average of 7 rats): 251 Grams | Daily Body Weight ([4]; day 5, individual rat): 232 Grams and 212 Grams and 278 Grams and 222 Grams and 240 Grams and 279 Grams and 294 Grams
